In ChEMBL document CHEMBL5030561, “Discovery of novel aminosaccharide-based sulfonamide derivatives as potential carbonic anhydrase II inhibitors” (Bioorg Med Chem Lett, 2021):

Tests used:
in vitro [1] = conditions: mouse, liver microsomes
Description: Metabolic stability in mouse liver microsomes assessed as half-life

in vitro [2] = conditions: mouse, liver microsomes; remark: listed apart in the source
Description: Metabolic stability in mouse liver microsomes assessed as clearance

Carbonic anhydrase 9 = Carbonic anhydrase 9 (Homo sapiens, UniProt Q16790); test: Inhibition of recombinant human CA9 using 4-nitrophenylacetate as substrate by esterase assay
[3] = Solubility of compound in water; format: physicochemical; conditions: buffer
[4] = Cytotoxicity against HCEC cells assessed as cell viability at 1% by MTT assay relative to control; format: cell-based; conditions: human, read-out: Activity
[5] = Cytotoxicity against HCEC cells assessed as cell viability at 2 % by MTT assay relative to control; format: cell-based; conditions: human, read-out: Activity
Carbonic anhydrase 1 = Carbonic anhydrase 1 (Homo sapiens, UniProt P00915); test: Inhibition of recombinant human CA1 using 4-nitrophenylacetate as substrate by esterase assay
Homo sapiens [6] = organism: Homo sapiens; test: Selectivity ratio of IC50 for inhibition of recombinant human CA1 to IC50 for inhibition of recombinant human CA2 using 4-nitrophenylacetate as substrate by esterase assay
Homo sapiens [7] = organism: Homo sapiens; test: Selectivity ratio of IC50 for inhibition of recombinant human CA9 to IC50 for inhibition of recombinant CA2 using 4-nitrophenylacetate as substrate by esterase assay
Carbonic anhydrase 2 = Carbonic anhydrase 2 (Homo sapiens, UniProt P00918)
Description: Inhibition of recombinant human CA2 using 4-nitrophenylacetate as substrate by esterase assay

Chain of Carbonic anhydrase 1 (P00915 whole entry): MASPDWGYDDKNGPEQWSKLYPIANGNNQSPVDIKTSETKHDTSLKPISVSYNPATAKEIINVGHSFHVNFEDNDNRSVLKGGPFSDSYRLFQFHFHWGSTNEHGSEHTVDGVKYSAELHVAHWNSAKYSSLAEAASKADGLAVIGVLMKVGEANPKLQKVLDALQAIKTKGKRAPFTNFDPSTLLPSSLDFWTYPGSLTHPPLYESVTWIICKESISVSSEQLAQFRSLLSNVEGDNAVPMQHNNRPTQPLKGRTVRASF

| Structure (SMILES) | half-life (in vitro [1]) | CLint scaled (in vitro [2]) | IC50 (Carbonic anhydrase 9) | solubility [3] | IC50 (Carbonic anhydrase 1) | Selectivity ratio (Homo sapiens [6]) | Selectivity ratio (Homo sapiens [7]) | IC50 (Carbonic anhydrase 2) | viability at 1 % [4] | viability at 2 % [5] |
| --- | --- | --- | --- | --- | --- | --- | --- | --- | --- | --- |
| O=C(O)Cc1ccccc1Nc1c(Cl)cccc1Cl [DICLOFENAC] | 0.667 h | 137 mL/min/kg |  |  |  |  |  |  |  |  |
| CCCO[C@@H]1O[C@H](CNC(=O)c2ccc(S(N)(=O)=O)cc2)[C@@H](O)[C@H](O)[C@H]1N | 64.4 h | 1.42 mL/min/kg | 290 nM | 2.2% |  |  |  |  | 76% | 71% |
| CO[C@@H]1O[C@H](CNC(=O)c2ccc(S(N)(=O)=O)cc2)[C@@H](O)[C@H](O)[C@@H]1O | 57.2 h | 1.6 mL/min/kg | 170 nM | 2.3% | 2900 nM | 41 | 2.4 | 70 nM | 76% | 71% |
| CO[C@@H]1O[C@H](CNC(=O)c2ccc(S(N)(=O)=O)cc2)[C@@H](O)[C@H](O)[C@H]1N | 55.8 h | 1.64 mL/min/kg | 190 nM | 2.5% | 2300 nM | 19 | 1.6 | 120 nM | 76% | 71% |
| CCO[C@@H]1O[C@H](CNC(=O)c2ccc(S(N)(=O)=O)cc2)[C@@H](O)[C@H](O)[C@H]1N | 58.6 h | 1.56 mL/min/kg | 220 nM | 2.3% |  |  |  |  | 76% | 71% |
| CO[C@@H]1O[C@H](CNC(=O)c2ccc(S(N)(=O)=O)cc2)[C@H](O)[C@H](O)[C@H]1O | 60.4 h | 1.52 mL/min/kg | 200 nM | 2.1% | 2700 nM | 45 | 3.3 | 60 nM | 76% | 71% |
| CC(=O)Nc1nnc(S(N)(=O)=O)s1 [ACETAZOLAMIDE] |  |  |  | 0.21% |  |  |  |  | 40% | 25% |
| CCN[C@H]1C[C@H](C)S(=O)(=O)c2sc(S(N)(=O)=O)cc21 [DORZOLAMIDE] |  |  |  | 0.67% |  |  |  |  |  |  |
| CCN[C@H]1CN(CCCOC)S(=O)(=O)c2sc(S(N)(=O)=O)cc21 [BRINZOLAMIDE] |  |  |  | 0.05% |  |  |  |  |  |  |

The next lines start with results.

| half-life (in vitro [1]) | CLint scaled (in vitro [2]) | IC50 (Carbonic anhydrase 9) | solubility [3] | IC50 (Carbonic anhydrase 1) | Selectivity ratio (Homo sapiens [6]) | Selectivity ratio (Homo sapiens [7]) | IC50 (Carbonic anhydrase 2) | Structure (SMILES) | viability at 1 % [4] | viability at 2 % [5] |
| --- | --- | --- | --- | --- | --- | --- | --- | --- | --- | --- |
| 66.4 h | 1.38 mL/min/kg | 220 nM | 2.2% |  |  |  |  | CCCO[C@@H]1O[C@H](CNC(=O)c2ccc(S(N)(=O)=O)cc2)[C@H](O)[C@H](O)[C@H]1O | 76% | 71% |
| 64.5 h | 1.42 mL/min/kg | 260 nM | 2.1% |  |  |  |  | CCCO[C@@H]1O[C@H](CNC(=O)c2ccc(S(N)(=O)=O)cc2)[C@@H](O)[C@H](O)[C@@H]1O | 76% | 71% |
| 59.5 h | 1.54 mL/min/kg | 190 nM | 2.2% |  |  |  |  | CCO[C@@H]1O[C@H](CNC(=O)c2ccc(S(N)(=O)=O)cc2)[C@@H](O)[C@H](O)[C@H]1O | 76% | 71% |
| 61.1 h | 1.5 mL/min/kg | 180 nM | 2.1% |  |  |  |  | CCO[C@@H]1O[C@H](CNC(=O)c2ccc(S(N)(=O)=O)cc2)[C@H](O)[C@H](O)[C@H]1O | 76% | 71% |
| 59.9 h | 1.53 mL/min/kg | 160 nM | 2.1% |  |  |  |  | CCCO[C@@H]1O[C@H](CNC(=O)c2ccc(S(N)(=O)=O)cc2)[C@@H](O)[C@H](O)[C@H]1O | 76% | 71% |
| 61.6 h | 1.48 mL/min/kg | 200 nM | 2% |  |  |  |  | CCO[C@@H]1O[C@H](CNC(=O)c2ccc(S(N)(=O)=O)cc2)[C@@H](O)[C@H](O)[C@@H]1O | 76% | 71% |
| 58.6 h | 1.56 mL/min/kg | 150 nM | 2.5% | 2000 nM | 20 | 1.5 | 100 nM | CO[C@@H]1O[C@H](CNC(=O)c2ccc(S(N)(=O)=O)cc2)[C@@H](O)[C@H](O)[C@H]1O | 76% | 71% |
